The source made the active and inactive calls. No cut-off for these calls is given here.
What was measured:
A549 = test: Anticancer activity against human A549 cells assessed as cell growth inhibition measured after 48 hrs by SRB assay; format: functional
HCT-116 = test: Anticancer activity against human HCT-116 cells assessed as cell growth inhibition measured after 48 hrs by SRB assay; format: functional
SF-295 = test: Anticancer activity against human SF-295 cells assessed as cell growth inhibition measured after 48 hrs by SRB assay; format: functional
LOX IMVI = test: Anticancer activity against human LOX IMVI cells assessed as cell growth inhibition measured after 48 hrs by SRB assay; format: functional
786-0 = test: Anticancer activity against human 786-0 cells assessed as cell growth inhibition measured after 48 hrs by SRB assay; format: functional
[1] = test system: Panel NCI-60 (60 carcinoma cell lines); test: Anticancer activity against human Panel NCI-60 (60 carcinoma cell lines) line assessed as cell growth inhibition measured after 48 hrs by SRB assay; format: functional
[2] = Inhibition of tubulin polymerization […] assessed as microtubule assembly measured every 1 min for 60 mins by fluorimeter analysis
NCI-H460 [3] = test: Induction of cell cycle arrest in human NCI-H460 cells assessed as accumulation at S phase at 20 nM incubated for 48 hrs by PI staining based flow cytometric analysis; format: functional
NCI-H522 [4] = test: Induction of apoptosis in human NCI-H522 cells assessed as viable cells at 0.05 uM incubated for 48 hrs by Annexin V-FITC/PI staining based flow cytometric analysis (reference value: 82.4%); format: functional; settings: read-out: Activity
NCI-H522 [5] = test: Induction of apoptosis in human NCI-H522 cells assessed as early apoptotic cells at 0.05 uM incubated for 48 hrs by Annexin V-FITC/PI staining based flow cytometric analysis (Rvb =7.01 %); format: functional
NCI-H522 [6] = test: Induction of apoptosis in human NCI-H522 cells assessed as late apoptotic cells at 0.05 uM incubated for 48 hrs by Annexin V-FITC/PI staining based flow cytometric analysis (Rvb =9.14 %); format: functional
NCI-H522 [7] = test: Induction of apoptosis in human NCI-H522 cells assessed as necrotic cells at 0.05 uM incubated for 48 hrs by Annexin V-FITC/PI staining based flow cytometric analysis (Rvb =0.64 %); format: functional
NCI-H522 [8] = test: Induction of apoptosis in human NCI-H522 cells assessed as viable cells at 0.5 uM incubated for 48 hrs by Annexin V-FITC/PI staining based flow cytometric analysis (reference value: 82.4%); format: functional; settings: read-out: Activity
NCI-H522 [9] = test: Induction of apoptosis in human NCI-H522 cells assessed as early apoptotic cells at 0.5 uM incubated for 48 hrs by Annexin V-FITC/PI staining based flow cytometric analysis (Rvb =7.01 %); format: functional
NCI-H522 [10] = test: Induction of apoptosis in human NCI-H522 cells assessed as late apoptotic cells at 0.5 uM incubated for 48 hrs by Annexin V-FITC/PI staining based flow cytometric analysis (Rvb =9.14 %); format: functional
NCI-H522 [11] = test: Induction of apoptosis in human NCI-H522 cells assessed as necrotic cells at 0.5 uM incubated for 48 hrs by Annexin V-FITC/PI staining based flow cytometric analysis (Rvb =0.64 %); format: functional
NCI-H522 [12] = test: Induction of apoptosis in human NCI-H522 cells assessed as viable cells at 5 uM incubated for 48 hrs by Annexin V-FITC/PI staining based flow cytometric analysis (reference value: 82.4%); format: functional; settings: read-out: Activity
NCI-H522 [13] = test: Induction of apoptosis in human NCI-H522 cells assessed as early apoptotic cells at 5 uM incubated for 48 hrs by Annexin V-FITC/PI staining based flow cytometric analysis (Rvb =7.01 %); format: functional
NCI-H522 [14] = test: Induction of apoptosis in human NCI-H522 cells assessed as late apoptotic cells at 5 uM incubated for 48 hrs by Annexin V-FITC/PI staining based flow cytometric analysis (Rvb =9.14 %); format: functional
NCI-H522 [15] = test: Induction of apoptosis in human NCI-H522 cells assessed as necrotic cells at 5 uM incubated for 48 hrs by Annexin V-FITC/PI staining based flow cytometric analysis (Rvb =0.64 %); format: functional
NCI-H522 [16] = test: Induction of apoptosis in human NCI-H522 cells assessed as apoptotic rate at 0.05 to 5 uM incubated for 48 hrs by AnnexinV-FITC/PI staining based flow cytometric analysis; format: functional; settings: dose 0.05-5 µM
NCI-H460 [17] = test: Induction of apoptosis in human NCI-H460 cells assessed as effect on cleavage of PARP at 1 uM measured for 48 hrs by western blot analysis; format: functional, cell-based
NCI-H460 [18] = test: Induction of apoptosis in human NCI-H460 cells assessed as effect on caspase 3 level at 1 uM measured for 48 hrs by western blot analysis; format: functional, cell-based
NCI-H460 [19] = test: Induction of apoptosis in human NCI-H460 cells assessed as effect on caspase 7 level at 1 uM measured for 48 hrs by western blot analysis; format: functional, cell-based
NCI-H460 [20] = test: Induction of apoptosis in human NCI-H460 cells assessed as effect on caspase 9 level at 1 uM measured for 48 hrs by western blot analysis; format: functional, cell-based
NCI-H522 [21] = test: Induction of mitochondrial membrane potential depolarization in human NCI-H522 cells measured after 48 hrs by JC-1 staining based flow cytometry analysis; format: functional, cell-based; settings: dose 0.05-5 µM, DDE = dose-dependent effect
NCI-H460 [22] = test: Downregulation of c-Myc protein expression level in human NCI-H460 cells at 20 nM incubated for 0.5 to 6 hrs by western blot analysis; format: functional, cell-based; settings: time 0.5-6 hrs
NCI-H460 [23] = test: Inhibition of polyribosome in human NCI-H460 cells assessed as increase in 80S ribosome at 200 nM incubated for 1 hr in presence of cycloheximide; format: functional, cell-based
[24] = Cmax in BALB/c nude mouse at 1 mg/kg, iv by LC-MS/MS analysis; format: ADME, organism-based; design: dose 1 mg/kg, route iv; settings: in vivo
[25] = Cmax in BALB/c nude mouse at 10 mg/kg, po by LC-MS/MS analysis; format: ADME, organism-based; design: dose 10 mg/kg, route po; settings: in vivo
[26] = AUC (0 to t) in BALB/c nude mouse at 1 mg/kg, iv by LC-MS/MS analysis; format: ADME, organism-based; design: dose 1 mg/kg, route iv; settings: in vivo
[27] = AUC (0 to t) in BALB/c nude mouse at 10 mg/kg, po by LC-MS/MS analysis; format: ADME, organism-based; design: dose 10 mg/kg, route po; settings: in vivo
[28] = Half life in BALB/c nude mouse at 10 mg/kg, po by LC-MS/MS analysis; format: ADME, organism-based; settings: in vivo
[29] = Oral bioavailability in BALB/c nude mouse at 10 mg/kg by LC-MS/MS analysis; format: ADME, organism-based; settings: in vivo
NCI-H522 [30] = test: Antitumor activity against human NCI-H522 cells xenografted in iv dosed BALB/c nude mouse assessed as inhibition of tumor growth administered every 4 days for 21 days; format: functional, organism-based; settings: dose 12.5-50 mg/kg, time 4.0 day, DDE = dose-dependent effect
NCI-H522 [31] = test: Antitumor activity against human NCI-H522 cells xenografted in BALB/c nude mouse assessed as reduction of tumor weight at 50 mg/kg, iv administered every 4 days for 21 days; format: functional; design: scale not given: the % may be the effect or the level left; settings: time 4 day
NCI-H522 [32] = test: Antitumor activity against human NCI-H522 cells xenografted in BALB/c nude mouse assessed as reduction of tumor growth by measuring T/C ratio at 50 mg/kg, iv administered every 4 days for 21 days; format: functional; settings: time 4 day
[33] = Toxicity in BALB/c nude mouse xenografted with human NCI-H522 cells assessed as change in body weight at 12.5 to 50 mg/kg, iv administered every 4 days for 21 days; format: organism-based; settings: in vivo, 96 h, dose 12.5-50 mg/kg, time 4 day

CCN(CC)C(=O)C[C@H]1C(=O)Nc2cc(NC(=O)c3cc(OC)c(OC)c(OC)c3Br)c(Oc3cc(C)cc(C)c3)cc2C(=O)N1C
GI50 (A549): < 5 nM
GI50 (HCT-116): < 5 nM
GI50 (SF-295): < 5 nM
GI50 (LOX IMVI): < 5 nM
GI50 (786-0): < 5 nM
GI50 [1]: < 5 nM
IC50 [2]: 10100 nM
Activity (NCI-H460 [3]): Active
viability at 0.05 µM (NCI-H522 [4]): 65.8%
Activity (NCI-H522 [5]): 7.75%
Activity (NCI-H522 [6]): 25.2%
Activity (NCI-H522 [7]): 1.25%
viability at 0.5 µM (NCI-H522 [8]): 28.4%
Activity (NCI-H522 [9]): 14.5%
Activity (NCI-H522 [10]): 52.4%
Activity (NCI-H522 [11]): 4.6%
viability at 5 µM (NCI-H522 [12]): 13.5%
Activity (NCI-H522 [13]): 19.8%
Activity (NCI-H522 [14]): 59%
Activity (NCI-H522 [15]): 7.64%
Activity (NCI-H522 [16]): 35%
Activity (NCI-H460 [17]): Active
Activity (NCI-H460 [18]): Active
Activity (NCI-H460 [19]): Active
Activity (NCI-H460 [20]): Active
Activity (NCI-H522 [21]): Dde
Activity (NCI-H460 [22]): Active
Activity (NCI-H460 [23]): Active
Cmax [24]: 1540 ng/mL
Cmax [25]: 42.6 ng/mL
AUC(0-t) [26]: 439 ng·h/mL
AUC(0-t) [27]: 66.5 ng·h/mL
half-life [28]: 1.4 h
bioavailability [29]: 1.53%
Activity (NCI-H522 [30]): Dde
Activity (NCI-H522 [31]): 88.7%
T/C (NCI-H522 [32]): 13.6%
Activity [33]: < 10%

Reference: ChEMBL document CHEMBL5214978, “Identification of 1,4-Benzodiazepine-2,5-dione Derivatives as Potential Protein Synthesis Inhibitors with Highly Potent Anticancer Activity” (J Med Chem, 2022)
